Like-named read-outs stand apart in the source and are kept apart here.
Assays:
[1] = tested on: HCT-116 cells (colorectal carcinoma); test: MTT anti-proliferative assay, HCT-116; type: cell-based, human; settings: for IC50: mean ± SD of three separate experiments, read-out: In vitro Cytotoxicity IC50 HCT-116
Method: (§1) Anti-proliferative activities of the target compounds were assessed via the standard MTT method[38–40] against three cancer cell lines, namely, hepatocellular carcinoma (HepG-2), colorectal carcinoma (HCT-116), and human breast adenocarcinoma (MCF-7). Doxorubicin was used in this test as a positive control.
(§2) Anti-proliferative activity of the synthesised compounds was estimated using the MTT assay protocol[8]^,[38–40] as shown in Supplementary data.
(§3) 4.2.1. In vitro anti-proliferative activity against MCF-7, HepG-2 and HCT-116 The cells were cultured in RPMI-1640 medium supplemented with 10% fetal bovine serum (FBS), penicillin (100 unit /mL) and streptomycin sulphate (100µg/mL) at 37 °C in a 5% CO2 incubator.
(§4) Then, cells were dropped in 96-well plates at a density of 3-8 × 10^3 cells/well and incubated for two days in a 5% CO2 incubator at 37 °C. Then, the cells were treated with the synthesized compounds and the cell cultures were continued incubated for 24 h. However, Different concentrations of the compound under test (0.0, 5.0, 12.5, 25.0 and 50 mg/ml) were added to the cell monolayer. Then, (3-[4,5-dimethylthiazol-2-yl]- 2,5-diphenyltetrazolium bromide) MTT solution (20 µl, 5mg/mL) was added to each well and incubated for additional 4 h. The formed purple crystals of MTT-formazan were dissolved in 100 µl DMSO each well; the absorbance of each well was measured at 570 nm using a plate reader (EXL 800, USA). All of the compounds were tested three times. The relative cell viability in percentage was calculated. The results for IC50 values of the active compounds are […]
(§5) The data represented the mean of three independent experiments in triplicate and were expressed as means ± SD. […]
(§6) of the cells could survive. […]

[2] = tested on: Calf thymus DNA; test: DNA intercalation assay (DNA/methyl green colorimetric assay); type: binding; settings: three independent experiments
Method: as §5
4.2.2. DNA intercalation assay (DNA/methyl green colorimetric assay)
Affinity of some compounds for DNA-binding was examined in vitro using DNA/methyl green assay using doxorubicin as a positive control. In this test, a mixture of methyl green (20 mg) and Calf thymus DNA (10 mg) (Sigma– Aldrich) were suspended in 0.05 M TrisHCl buffer (100 mL, pH 7.5) containing 7.5 mM MgSO4. This mixture was stirred continuously for 24 h at 37 °C. Then, ethanolic solution of the test compounds was pitted into the wells of a 96-well microtiter tray at a concentration of 10, 100 and 1000 µM. The excess solvent was removed from each well under vacuum, with subsequent addition of 200 µL of the DNA/methyl green solution. The test samples were incubated for 24 h in dark at ambient temperature. After that, absorbance of each sample was determined at 642.5–645 nm. In this test, the methyl green dye reversibly binds to DNA to form persistent colored complex of DNA/methyl green. This color still stables at neutral pH. When the DNA intercalators were added, the methyl green was displaced from DNA with addition of H2O molecule to the dye resulting in formation of the colorless carbinol leading to a decrease in spectrophotometric absorbance. ΔA value (the difference between DNA/methyl green complex and free cabinol) provides the simplest means for detecting the DNA-binding affinity and relative binding strength. IC50′s were determined by linear regression of data plotted on a semi -log scale and the data were compared with doxorubicin as standard DNA intercalator . […]

[3] = tested on: MCF-7 cells (human breast adenocarcinoma); test: MTT anti-proliferative assay, MCF-7; type: cell-based; settings: for IC50: mean ± SD of three separate experiments, read-out: In vitro Cytotoxicity IC50 MCF-7
Method: as §1, §2, §3, §4, §5, §6

[4] = tested on: HepG-2 cells (hepatocellular carcinoma); test: MTT anti-proliferative assay, HepG-2; type: cell-based, human; settings: for IC50: mean ± SD of three separate experiments, read-out: In vitro Cytotoxicity IC50 HepG-2
Method: Anti-proliferative activities of the target compounds were assessed via the standard MTT method[38–40] against three cancer cell lines, namely, hepatocellular carcinoma (HepG-2), colorectal carcinoma (HCT-116), and human breast adenocarcinoma (MCF-7).
as §2, §3
Then, cells were dropped in 96-well plates at a density of 3-8 × 10^3 cells/well and incubated for two days in a 5% CO2 incubator at 37 °C. Then, the cells were treated with the synthesized compounds and the cell cultures were continued incubated for 24 h. However, Different concentrations of the compound under test (0.0, 5.0, 12.5, 25.0 and 50 mg/ml) were added to the cell monolayer. Then, (3-[4,5-dimethylthiazol-2-yl]- 2,5-diphenyltetrazolium bromide) MTT solution (20 µl, 5mg/mL) was added to each well and incubated for additional 4 h. The formed purple crystals of MTT-formazan were dissolved in 100 µl DMSO each well; the absorbance of each well was measured at 570 nm using a plate reader (EXL 800, USA). All of the compounds were tested three times. The relative cell viability in percentage was calculated.
as §5

[5] = biological target: T1, human Topo II (Homo sapiens, UniProt P11388); test: Topoisomerase II inhibitory activity (TopoGEN drug screening kit); type: biochemical; settings: three independent experiments
T1 construct: purchased TopoGEN, Inc., Columbus
Method: The activity of topoisomerase II was determined according to the reported procedure described by Patra et al.[42]. […]
4.2.3. Measurement of topoisomerase II activity
Compounds (8a, 8b, 9a, 9c, 9d, 12a, and 12b) were further evaluated to assess their Topo II inhibitory activities. In this test, Topo II drug screening kit (TopoGEN, Inc., Columbus) was utilized to determine the Topo II activity. […] A typical enzyme […]
reaction contained a mixture of human Topo II (2 µL), substrate super coiled pHot1 DNA (0.25 µg), 50 µg/mL test compound (2 µL), and assay buffer (4 µL). The reaction started upon incubation of the mixture in 37 °C for 30 min. The reaction was terminated by addition of 10% sodium dodecylsulphate (2 µL) and proteinase K (50 µg/mL) at 37 °C for 15 min. followed by incubation for 15 min at 37 °C.
Then, the DNA was run on 1% agarose gel in BioRad gel electrophoresis system for 1–2 h followed by staining with GelRedTM stain for 2 h and destained for 15 min with TAE buffer. The gel was imaged Via BioRad’s Gel DocTMEZ system. Both supercoiled and linear strands DNA were incorporated in the gel as markers for DNA-Topo II intercalators. The results of IC50 values were calculated using the GraphPad Prism version 5.0. Each reaction was performed in duplicate, and at least three independent determinations of each IC50 were made.

[6] = ratio of IC50 values vs doxorubicin

T1 sequence (P11388 whole entry): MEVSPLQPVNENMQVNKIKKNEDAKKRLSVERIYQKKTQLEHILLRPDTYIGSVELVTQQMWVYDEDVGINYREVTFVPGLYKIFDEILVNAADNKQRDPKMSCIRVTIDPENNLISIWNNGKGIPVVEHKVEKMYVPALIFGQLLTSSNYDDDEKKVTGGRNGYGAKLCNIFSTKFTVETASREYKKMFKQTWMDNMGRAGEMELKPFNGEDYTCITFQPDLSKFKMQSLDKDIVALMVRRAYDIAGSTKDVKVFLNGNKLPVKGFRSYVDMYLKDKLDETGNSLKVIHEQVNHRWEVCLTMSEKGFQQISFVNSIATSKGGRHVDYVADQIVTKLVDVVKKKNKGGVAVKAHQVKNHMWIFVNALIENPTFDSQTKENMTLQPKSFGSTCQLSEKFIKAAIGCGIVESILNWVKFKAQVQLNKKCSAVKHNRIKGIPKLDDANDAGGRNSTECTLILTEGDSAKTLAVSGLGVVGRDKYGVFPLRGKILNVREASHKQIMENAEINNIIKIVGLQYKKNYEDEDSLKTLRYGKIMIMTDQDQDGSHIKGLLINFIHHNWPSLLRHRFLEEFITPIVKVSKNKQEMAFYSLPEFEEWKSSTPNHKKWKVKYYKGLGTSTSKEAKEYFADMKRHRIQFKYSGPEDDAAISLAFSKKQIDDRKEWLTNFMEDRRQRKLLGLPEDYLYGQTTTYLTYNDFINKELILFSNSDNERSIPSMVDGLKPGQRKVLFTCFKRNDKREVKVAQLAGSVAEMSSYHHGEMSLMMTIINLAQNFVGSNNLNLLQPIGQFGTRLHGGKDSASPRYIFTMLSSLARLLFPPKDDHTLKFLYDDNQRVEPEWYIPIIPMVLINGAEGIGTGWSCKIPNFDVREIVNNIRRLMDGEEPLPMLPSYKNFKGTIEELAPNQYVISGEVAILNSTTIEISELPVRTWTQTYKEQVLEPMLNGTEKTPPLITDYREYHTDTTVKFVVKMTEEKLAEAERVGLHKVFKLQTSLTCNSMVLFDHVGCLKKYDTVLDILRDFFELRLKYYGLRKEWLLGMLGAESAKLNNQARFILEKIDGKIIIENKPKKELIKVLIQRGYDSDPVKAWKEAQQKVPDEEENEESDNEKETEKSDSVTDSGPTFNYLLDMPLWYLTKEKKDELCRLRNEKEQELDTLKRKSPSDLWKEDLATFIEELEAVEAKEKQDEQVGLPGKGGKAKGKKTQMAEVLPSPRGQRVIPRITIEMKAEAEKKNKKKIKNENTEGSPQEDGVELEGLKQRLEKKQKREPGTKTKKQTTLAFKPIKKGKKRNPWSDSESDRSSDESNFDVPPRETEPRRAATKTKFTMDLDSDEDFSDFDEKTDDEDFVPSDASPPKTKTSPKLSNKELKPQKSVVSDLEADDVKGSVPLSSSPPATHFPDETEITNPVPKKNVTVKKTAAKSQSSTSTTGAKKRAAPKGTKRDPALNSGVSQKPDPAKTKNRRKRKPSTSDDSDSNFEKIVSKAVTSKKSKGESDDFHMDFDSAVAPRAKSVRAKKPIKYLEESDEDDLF

IC50 [2] | IC50 [5] | Compound | IC50 ([1]; Homo sapiens, HCT-116, MTT) | IC50 ([3]; Homo sapiens, MCF7, MTT) | IC50 ([4]; Homo sapiens, HepG2, MTT) | IC50 ([1]; MTT) | IC50 ([3]; MTT) | IC50 ([4]; MTT) | times more active than doxorubicin, HCT-116 [1, 6] | times more active than doxorubicin, MCF-7 [3, 6] | times more active than doxorubicin, HepG2 [4, 6]
 | 21.4 ± 1.9 µM | CCCc1nnc2c3ccccc3c(NN=Cc3ccc(O)cc3)nn12 [Compound 9c, 4-[(2–(3-Propyl-[1,2, 4]triazolo[3,4-a]phthalazin-6-yl)hydrazineylidene)methyl]-phenol] | 78.5 ± 2.04 µM | 57.8 ± 1.56 µM | 56.3 ± 1.73 µM |  |  |  |  |  | 
28.7 ± 1.71 µM | 7.64 ± 0.66 µM | CCCc1nnc2c3ccccc3c3nnc(SCC(=O)Nc4ccc(C(=O)O)cc4)n3n12 [Compound 14a, 4-[2-((6-Propylbis([1,2, 4]triazolo)[3,4-a:4',3'-c]phthalazin-3-yl)thio)acetamido]benzoic acid] | 4.35 ± 0.19 µM | 4.36 ± 0.2 µM | 5.65 ± 0.25 µM |  |  |  | ~2.28 times | ~1.75 times | about 1.46 times
34.4 ± 2.8 µM | 13.7 ± 1.02 µM | CCCc1nnc2c3ccccc3c3nnc(SCC(=O)Nc4ccc([N+](=O)[O-])cc4)n3n12 [Compound 14b, N-(4-Nitrophenyl)-2-[(6-propylbis([1,2, 4]triazolo)[3,4-a:4',3'-c]phthalazin-3-yl)thio]acetamide] | 10.9 to 14.9 µM | 10.9 to 14.9 µM | 10.9 to 14.9 µM | 12.6 ± 0.45 µM | 14.9 ± 0.55 µM | 13.4 ± 0.4 µM |  |  | 
46.3 ± 2.3 µM |  | CCCc1nnc2c3ccccc3c3nnc(SCC(=O)Nc4ccc(S(N)(=O)=O)cc4)n3n12 [Compound 14c, 2-[(6-Propylbis([1,2, 4]triazolo)[3,4-a:4',3'-c]phthalazin-3-yl)thio]-N-(4-sulfamoyl-phenyl)acetamide] | 30.99 ± 0.11 µM | 20.6 ± 0.88 µM | 24.8 ± 0.88 µM |  |  |  |  |  | 

Further lines, the molecule ahead of its results:

Compound | IC50 [2] | IC50 [5] | IC50 ([1]; Homo sapiens, HCT-116, MTT) | IC50 ([3]; Homo sapiens, MCF7, MTT) | IC50 ([4]; Homo sapiens, HepG2, MTT) | IC50 ([1]; MTT) | IC50 ([3]; MTT) | IC50 ([4]; MTT) | times more active than doxorubicin, HCT-116 [1, 6] | times more active than doxorubicin, MCF-7 [3, 6] | times more active than doxorubicin, HepG2 [4, 6]
CCCc1nnc2c3ccccc3c(NNC(=O)NC3CCCCC3)nn12 [Compound 7a, N-Cyclohexyl-2–(3-propyl-[1,2, 4]triazolo[3,4-a]phthalazin-6-yl)hydrazine-1-carboxamide] | 37.1 ± 2 µM |  | 23.8 ± 0.81 µM | 19.4 ± 0.62 µM | 24.9 ± 0.8 µM |  |  |  |  |  | 
CCCc1nnc2c3ccccc3c(NNC(=O)Nc3ccccc3)nn12 [Compound 7b, N-Phenyl-2–(3-propyl-[1,2, 4]triazolo[3,4-a]phthalazin-6-yl)hydrazine-1-carboxamide] | 36.6 ± 1.82 µM |  | 48.6 ± 1.6 µM | 50.7 ± 1.55 µM | 45 ± 1.1 µM |  |  |  |  |  | 
CCCc1nnc2c3ccccc3c(NNC(=S)NCC)nn12 [Compound 8a, N-Ethyl-2–(3-propyl-[1,2, 4]triazolo[3,4-a]phthalazin-6-yl)hydrazine-1-carbothioamide] | 29.6 ± 1.41 µM | 22.3 ± 2 µM | 25 ± 0.7 µM | 16.5 ± 0.43 µM | 28.9 ± 0.67 µM |  |  |  |  |  | 
CCCc1nnc2c3ccccc3c(NNC(=S)NC3CCCCC3)nn12 [Compound 8b, N-Cyclohexyl-2–(3-propyl-[1,2, 4]triazolo[3,4-a]phthalazin-6-yl)hydrazine-1-carbothioamide] | 34.6 ± 1.1 µM | 8.91 ± 0.77 µM | 10.9 to 14.9 µM | 10.9 to 14.9 µM | 10.9 to 14.9 µM | 13.8 ± 0.44 µM | 12.5 ± 0.32 µM | 10.9 ± 0.34 µM |  |  | 
CCCc1nnc2c3ccccc3c(NN=Cc3ccc(Cl)cc3)nn12 [Compound 9a, 6-[2–(4-Chlorobenzylidene)hydrazineyl]-3-propyl-[1,2, 4]triazolo[3,4-a]phthalazine] | 43.8 ± 2.22 µM | 13.7 µM | 36.3 ± 1.1 µM | 45.5 ± 1.22 µM | 25.2 ± 0.7 µM |  |  |  |  |  | 
CCCc1nnc2c3ccccc3c(NN=Cc3ccc(F)cc3)nn12 [Compound 9b, 6-[2–(4-Fluorobenzylidene)hydrazineyl]-3-propyl-[1,2, 4]triazolo[3,4-a]phthalazine] | 49.9 ± 2.53 µM |  | 61.7 ± 1.89 µM | 36 ± 0.98 µM | 63.9 ± 1.02 µM |  |  |  |  |  | 
CCCc1nnc2c3ccccc3c3nnc(SCC(N)=O)n3n12 [Compound 15, 2-[(6-Propylbis([1,2, 4]triazolo)[3,4-a:4',3'-c]phthalazin-3-yl)thio]acetamide] | 71.2 ± 3.11 µM |  | 53.5 ± 1.55 µM | 26.2 ± 0.77 µM | 38.6 ± 1 µM |  |  |  |  |  | 
